Results as given in patent publication US11760744B2, “Fused ring compounds” (Genentech, Inc., priority 2018, dated 2023).

Key:
K-Ras G12C [1] = biological target: T1, K-Ras G12C (Homo sapiens, UniProt P01116, G12C); assay: K-Ras G12C, SOS1, Raf RBD HTRF assay for inhibition of GTP exchange; type: biochemical; parameters: K-Ras G12C (residues 2-188) and SOS1 (residues 564-1049) had N-terminal 6-His; made in house; host or cells: E. coli; details: 18 hours preincubation with K-Ras G12C at room temperature; SOS1-mediated GTP exchange
Outline: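 After 18 h at room temperature with compound, SOS1 (1.25 nM final) started exchange to GTP (150 μM final). C-Raf RBD, Tb-anti-FLAG and D2-anti-his (50, 1 and 12.5 nM) were then added. The 665/615 nm HTRF ratio was read after 2 h; buffer was HEPES/NaCl, 1 mM MgCl2, BSA, Tween-20 and DTT.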
Target sequence in this assay (P01116 2-188 isoform P01116-2 G12C): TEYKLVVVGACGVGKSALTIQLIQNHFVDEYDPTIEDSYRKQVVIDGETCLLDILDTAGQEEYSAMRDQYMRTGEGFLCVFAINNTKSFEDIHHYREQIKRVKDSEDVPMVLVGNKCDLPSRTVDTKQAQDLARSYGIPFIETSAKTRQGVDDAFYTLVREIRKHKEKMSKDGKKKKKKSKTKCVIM

[2] = Whole blood stability assay; type: in vitro ADME; details: fresh whole blood, drug 1 μM, 37° C., 180 minutes incubation
Protocol: Whole Blood Stability Assay A whole blood stability assay was performed using fresh blood with a drug final concentration of 1 μM. The drug-blood mixtures were incubated at 37° C. for 180 minutes.

K-Ras G12C [3] = biological target: T1, K-Ras G12C; assay: Western blot assay for in cell alkylation of K-Ras G12C (HCC1171 cells); type: cell-based; parameters: endogenous in cells; host or cells: HCC1171; details: 18 hours at 37° C., 7 point dose response
Outline: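 HCC1171 cells exposed to compounds for 18 h at 37° C, lysed, and analysed by SDS-PAGE/western blot with anti-K-Ras antibody and fluorescent secondary. Alkylated K-Ras separated by band shift; % alkylation = FI(alkylated)/(FI(alkylated)+FI(unalkylated))×100, IC50 from 7-point dose response.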
Target sequence in this assay (P01116 1-188 isoform P01116-2 G12C): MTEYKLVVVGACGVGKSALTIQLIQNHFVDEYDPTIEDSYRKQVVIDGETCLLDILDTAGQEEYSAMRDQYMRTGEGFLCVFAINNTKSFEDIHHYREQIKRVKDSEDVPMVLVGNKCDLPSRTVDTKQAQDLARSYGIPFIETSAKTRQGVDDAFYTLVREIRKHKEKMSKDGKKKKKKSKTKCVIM

| SMILES | IC50 (K-Ras G12C [1]) | half-life at 1 μM [2] | EC50 (K-Ras G12C [3]) |
| --- | --- | --- | --- |
| C=CC(=O)N1CCN(c2nc(OC[C@@H]3CCCN3C)nc3c2C[C@@H](C)[C@H](c2c(C(F)(F)F)ccc(N)c2F)C3)[C@@H](C)C1 (single isomer, unassigned) [Example 23b] | < 10 nM | 4.67 h | 6.6 nM |
| C=CC(=O)N1CCN(c2nc(OC[C@@H]3CCCN3C)nc3c2C[C@@H](C)[C@H](c2cc(O)cc4ccccc24)C3)[C@@H](C)C1 (single isomer, unassigned) [Example 22b] | < 10 nM | > 9 h | 6.1 nM |
| C=CC(=O)N1CCN(c2nc(OC[C@@H]3C[C@@H](F)CN3C)nc3c2C[C@@H](C)[C@H](c2c(F)c(N)cc(C)c2C(F)(F)F)C3)[C@@H](C)C1 (single isomer, unassigned) [Example 36b] | < 10 nM | > 9 h | 6 nM |
| C=C(F)C(=O)N1CCN(c2nc(OC[C@@H]3CCCN3C)nc3c2C[C@@H](C)[C@H](c2c(F)c(N)cc(C)c2C(F)(F)F)C3)C[C@@H]1CC#N (single isomer, unassigned) [Example 34c] | < 10 nM | > 9 h | 14 nM |
| C=CC(=O)N1CCN(c2nc(OC[C@@H]3CCCN3C)nc3c2C[C@@H](C)[C@H](c2c(F)c(N)cc(C)c2C(F)(F)F)C3)[C@@H](C)C1 (single isomer, unassigned) [Example 12b] | < 10 nM | > 9 h | 3.3 nM |
| C=CC(=O)N1CCN(c2nc(OC[C@@H]3CCCN3C)nc3c2C[C@@H](C)[C@H](c2nc(N)cc(C)c2C(F)(F)F)C3)CC1 (single isomer, unassigned) [Example 20a] | < 10 nM | 3.83 h | 14 nM |
| C=CC(=O)N1CCN(c2nc(OC[C@@H]3CCCN3C)nc3c2C[C@@H](C)[C@H](c2nc(N)cc(C)c2C(F)(F)F)C3)[C@@H](C)C1 (single isomer, unassigned) [Example 21b] | < 10 nM | > 9 h | 6 nM |
| C=C(F)C(=O)N1CCN(c2nc(OC[C@@H]3CCCN3C)nc3c2CC(C)C(c2c(F)c(N)cc(C)c2C(F)(F)F)C3)CC1CC#N (single isomer, unassigned) [Example 34d] | < 10 nM | > 9 h | 6.7 nM |
| C=CC(=O)N1CCN(c2nc(OC[C@@H]3CCCN3C)nc3c2CC[C@H](c2cc(O)cc4ccccc24)C3)[C@@H](C)C1 (single isomer, unassigned) [Example 28b] | < 10 nM | 7 h | 23 nM |
